Data: patent US20230000842A1, “METHODS OF TREATING CARTILAGE DISORDERS THROUGH INHIBITION OF CLK AND DYRK” (SAMUMED, LLC, priority 2019, published 2023)
pEC50: −log10 of the molar value.

How the values were obtained:
[1] = tested on: primary human mesenchymal stem cells (hMSCs); experiment: Chondrogenesis screening using primary human mesenchymal stem cells; assay type: cell-based; settings: Homo sapiens, Mesenchymal stem cells, hMSC chondrogenesis; for Emax: maximum activity relative to TGF-β3 (10 ng/mL) positive control, read-out: Max. Activity as % TGF-β3 activity; for EC50: concentration required to induce 50% levels of chondrogenesis with TGF-β3 as positive control, read-out: Conc (nM) of 50% TGF-β3 activity
In short: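 Primary hMSCs at passage 3–6 were treated across compound concentrations, with TGF-β3 as positive control. Chondrogenic nodule area per well was normalized to 3 DMSO wells on the same plate (fold over DMSO, 2–3 replicates). EC50, maximum activity and the dose reaching it were derived.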

[2] = tested on: Wnt pathway activity (SW480 colon carcinoma cells stably expressing the Sp5-Luc reporter); experiment: Wnt pathway activity screening assay (Sp5-Luc reporter gene assay); settings: Homo sapiens, SW480, Table 4; SW480 cells stably expressing Sp5-Luc reporter, 10-point dose-response from 10 μM, 36 to 48 hours
CLK3 kinase = CLK3 kinase (Homo sapiens, UniProt P49761); experiment: CLK3 kinase activity assay (Z-lyte FRET); assay type: biochemical; settings: Z-lyte Ser/Thr 18 peptide, 156 μM ATP, 1 h at room temperature;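 further: kinase activity read as coumarin/fluorescein emission ratio by FRET, unphosphorylated peptide as 0% and phosphorylated peptide as 100% control, values from non-linear regression of dose-response curves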
CLK2 kinase = CLK2 kinase (Homo sapiens, UniProt P49760); experiment: CLK2 kinase activity assay (Z-lyte FRET); assay type: biochemical; settings: Z-lyte Ser/Thr 6 peptide, 60 μM ATP, 1 h at room temperature;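 further: FRET read-out as coumarin to fluorescein emission ratio, unphosphorylated peptide as 0% and phosphorylated peptide as 100% controls, duplicate reactions, non-linear regression fit of dose-response curves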
CLK2 kinase, sequence (P49760 whole entry): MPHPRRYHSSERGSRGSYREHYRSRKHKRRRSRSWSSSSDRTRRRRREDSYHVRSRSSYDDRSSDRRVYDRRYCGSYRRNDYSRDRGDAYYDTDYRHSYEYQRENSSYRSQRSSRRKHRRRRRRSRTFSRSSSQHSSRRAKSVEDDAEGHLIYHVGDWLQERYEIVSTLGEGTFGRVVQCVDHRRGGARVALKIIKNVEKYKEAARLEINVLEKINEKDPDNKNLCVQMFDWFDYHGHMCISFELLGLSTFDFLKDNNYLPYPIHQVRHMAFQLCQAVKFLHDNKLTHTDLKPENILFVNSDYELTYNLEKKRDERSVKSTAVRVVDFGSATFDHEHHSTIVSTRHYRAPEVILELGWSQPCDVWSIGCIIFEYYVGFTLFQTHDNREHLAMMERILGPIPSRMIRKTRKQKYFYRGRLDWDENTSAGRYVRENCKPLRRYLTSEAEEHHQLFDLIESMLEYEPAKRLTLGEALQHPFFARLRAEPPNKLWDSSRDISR

CLK3 kinase, sequence (P49761 whole entry): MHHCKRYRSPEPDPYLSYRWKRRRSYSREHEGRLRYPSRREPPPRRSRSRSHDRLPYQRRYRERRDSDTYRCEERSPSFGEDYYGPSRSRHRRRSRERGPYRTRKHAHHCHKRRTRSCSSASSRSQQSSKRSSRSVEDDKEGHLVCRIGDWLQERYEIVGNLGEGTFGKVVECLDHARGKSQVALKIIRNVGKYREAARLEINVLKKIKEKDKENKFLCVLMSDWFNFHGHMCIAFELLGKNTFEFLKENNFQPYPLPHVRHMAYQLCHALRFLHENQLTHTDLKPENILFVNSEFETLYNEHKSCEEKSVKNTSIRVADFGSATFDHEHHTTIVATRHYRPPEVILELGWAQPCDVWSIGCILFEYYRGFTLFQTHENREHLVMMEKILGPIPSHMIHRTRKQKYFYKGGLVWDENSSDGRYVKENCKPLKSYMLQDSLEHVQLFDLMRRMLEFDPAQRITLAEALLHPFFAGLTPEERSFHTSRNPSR

Row | Compound | Emax [1] | pEC50 [2] | pEC50 (CLK3 kinase) | pEC50 (CLK2 kinase) | EC50 [1]
1 | c1cc(-c2ccoc2)c2cc(-c3n[nH]c4ccc(-c5cncc(CNCC6CCCC6)c5)nc34)[nH]c2c1 [compound 502] | 25.3% | 5.44 | 6.47 | 7.85 | –
2 | FC1(F)CCN(Cc2cncc(-c3cnc4[nH]nc(-c5cc6c(-c7ccoc7)cccc6[nH]5)c4c3)c2)C1 [compound 503] | 72.1% | 6.00 | 6.98 | 8.00 | 30 nM
3 | COc1cncc(-c2ccc3[nH]nc(-c4cc5c(-c6ccoc6)nccc5[nH]4)c3c2)c1 [compound 504] | 35.5% | 6.19 | 6.93 | 8.22 | –
4 | c1ncc(-c2ccc3[nH]nc(-c4cc5c(-c6ccoc6)nccc5[nH]4)c3c2)cn1 [compound 505] | 40.2% | 5.72 | 6.66 | 8.40 | –
5 | CC(C)CC(=O)Nc1cncc(-c2cc3c(-c4cc5c(-c6cccs6)nccc5[nH]4)n[nH]c3cn2)c1 [compound 506] | 81.4% | 6.24 | 6.41 | 8.10 | 10 nM
6 | O=C(Nc1cncc(-c2cnc3[nH]nc(-c4cc5c(-c6cccs6)nccc5[nH]4)c3c2)c1)C1CCC1 [compound 507] | 82.2% | 6.32 | 7.22 | 8.00 | 100 nM
7 | c1ccc(CNCc2cncc(-c3ccc4[nH]nc(-c5cc6c(-c7cccs7)cncc6[nH]5)c4c3)c2)cc1 [compound 508] | 57.4% | 6.24 | 7.17 | 8.15 | –
8 | c1csc(-c2nccc3[nH]c(-c4n[nH]c5cnc(-c6cncc(CN7CCCCC7)c6)cc45)cc23)c1 [compound 509] | 59% | 5.43 | 6.85 | 8.22 | 10 nM
9 | c1csc(-c2ccnc3[nH]c(-c4n[nH]c5ccc(-c6cncc(OC7CCNCC7)c6)nc45)cc23)c1 [compound 510] | 51.4% | 5.45 | 5.73 | 7.80 | 300 nM
10 | CN(C)CCNc1cc(F)cc(-c2cccc3[nH]c(-c4n[nH]c5cnc(-c6cncc(N)c6)cc45)cc23)c1 [compound 511] | 180% | 6.39 | 7.30 | 8.22 | 100 nM
11 | CCCC(=O)Nc1cncc(-c2cc3c(-c4cc5c(-c6cc(F)cc(NCCN(C)C)c6)ccnc5[nH]4)n[nH]c3cn2)c1 [compound 512] | 162% | < 5.00 | 7.03 | 7.85 | 10 nM
12 | CN(C)CCNc1cc(F)cc(-c2ccnc3[nH]c(-c4n[nH]c5cnc(-c6cncc(NC(=O)C(C)(C)C)c6)cc45)cc23)c1 [compound 513] | 87.3% | 6.41 | 7.31 | 8.22 | 10 nM
13 | CN(C)CCNc1cc(F)cc(-c2ccnc3[nH]c(-c4n[nH]c5ccc(-c6cncc(CN7CCCCC7)c6)nc45)cc23)c1 [compound 514] | 48.5% | 5.90 | 7.31 | 8.40 | –
14 | CN(C)CCNc1cc(F)cc(-c2cccc3[nH]c(-c4n[nH]c5cnc(-c6cncc(O)c6)cc45)cc23)c1 [compound 515] | 66.4% | 6.39 | 6.96 | 8.30 | 10 nM
15 | CN(C)CCNc1cc(F)cc(-c2cccc3[nH]c(-c4n[nH]c5ccc(-c6cncnc6)nc45)cc23)c1 [compound 516] | 181% | 6.38 | 7.20 | 8.30 | 10 nM
16 | CCC(=O)Nc1cncc(-c2ccc3[nH]nc(-c4cc5c(-c6cc(F)cc(CNS(C)(=O)=O)c6)cncc5[nH]4)c3c2)c1 [compound 517] | 29.4% | 6.61 | 6.67 | 8.10 | –
17 | CCCC(=O)Nc1cncc(-c2cnc3[nH]nc(-c4cc5c(-c6cc(F)cc(CNS(C)(=O)=O)c6)cncc5[nH]4)c3c2)c1 [compound 518] | 36.7% | 5.77 | 7.41 | 8.15 | –
18 | CC(C)C(=O)Nc1cncc(-c2cnc3[nH]nc(-c4cc5c(-c6cc(F)cc(CNS(C)(=O)=O)c6)cncc5[nH]4)c3c2)c1 [compound 519] | 59.6% | < 5.00 | 6.63 | 7.74 | –
19 | CC(C)C(=O)Nc1cncc(-c2cc3c(-c4cc5c(-c6cc(F)cc(CNS(C)(=O)=O)c6)nccc5[nH]4)n[nH]c3cn2)c1 [compound 520] | 79.5% | < 5.00 | 7.12 | 8.52 | 30 nM
20 | CCCCC(=O)Nc1cncc(-c2cc3c(-c4cc5c(-c6cc(F)cc(CNS(C)(=O)=O)c6)nccc5[nH]4)n[nH]c3cn2)c1 [compound 521] | 111% | < 5.00 | 6.11 | 8.05 | 10 nM
21 | CC(C)CC(=O)Nc1cncc(-c2cnc3[nH]nc(-c4cc5c(-c6cc(F)cc(CNS(C)(=O)=O)c6)nccc5[nH]4)c3c2)c1 [compound 522] | 52% | 5.82 | 7.32 | 8.10 | 300 nM
22 | CC(C)CC(=O)Nc1cncc(-c2cnc3[nH]nc(-c4cc5c(-c6cc(F)cc(CNS(C)(=O)=O)c6)cncc5[nH]4)c3c2)c1 [compound 523] | 45.5% | 5.60 | 7.09 | 8.05 | –
23 | CC(C)CC(=O)Nc1cncc(-c2cc3c(-c4cc5c(-c6cc(F)cc(CNS(C)(=O)=O)c6)cncc5[nH]4)n[nH]c3cn2)c1 [compound 524] | 24.2% | < 5.00 | 6.70 | 7.82 | –
24 | CC(C)CC(=O)Nc1cncc(-c2ccc3[nH]nc(-c4cc5c(-c6cc(F)cc(CNS(C)(=O)=O)c6)nccc5[nH]4)c3n2)c1 [compound 525] | 33.1% | 6.32 | 7.42 | 8.10 | –
25 | CS(=O)(=O)NCc1cc(F)cc(-c2cncc3[nH]c(-c4n[nH]c5ccc(-c6cncc(NC(=O)C7CC7)c6)nc45)cc23)c1 [compound 526] | 82.9% | 5.88 | 6.85 | 8.40 | 10 nM
26 | CS(=O)(=O)NCc1cc(F)cc(-c2cncc3[nH]c(-c4n[nH]c5ccc(-c6cncc(NC(=O)C7CCC7)c6)cc45)cc23)c1 [compound 527] | 14.5% | 6.26 | 7.18 | 7.96 | –
27 | CS(=O)(=O)NCc1cc(F)cc(-c2nccc3[nH]c(-c4n[nH]c5ncc(-c6cncc(NC(=O)C7CCC7)c6)cc45)cc23)c1 [compound 528] | 51.6% | 5.44 | 7.23 | 8.30 | 300 nM
28 | CS(=O)(=O)NCc1cc(F)cc(-c2cncc3[nH]c(-c4n[nH]c5cnc(-c6cncc(NC(=O)C7CCC7)c6)cc45)cc23)c1 [compound 529] | 15.5% | < 5.00 | 6.73 | 8.10 | –
29 | CS(=O)(=O)NCc1cc(F)cc(-c2nccc3[nH]c(-c4n[nH]c5ccc(-c6cncc(NC(=O)Cc7ccccc7)c6)nc45)cc23)c1 [compound 530] | 110% | < 5.00 | 6.82 | 7.77 | 10 nM
